Reference: US8012982B2, “Modulators of HCV replication” (priority 2004, dated 2011)
Where two headings read alike, the source gives them in different places.

What was measured:
pHCVNeo17.wt replicon = assay type: cell-based; settings: for Replicon Activation Yes/No: pHCVNeo17.wt replicon in 10AIFN cells, cultured 4 days, Cell-ELISA
pHCVNeo17.m10 replicon = assay: microbe, parasite or virus in culture; assay type: cell-based; settings: pHCVNeo17.m10 replicon in 10AIFN cells, cultured 4 days, Cell-ELISA, read-out: Replicon Inhibition Range IC50
[1] = tested on: HCV replicon in resistant clone 10AB3; assay: microbe, parasite or virus in culture; assay type: cell-based; settings: Hepatitis C virus, Cell-ELISA, read-out: IC50 Compound (Ib)
cell proliferation = settings: relative to concentrations effective on the replicon
pHCVNeo17.m29 replicon = assay: microbe, parasite or virus in culture; assay type: cell-based; settings: Hepatitis C virus, read-out: Cmpd Ib IC50 (μM)
pHCVNeo17.m35 replicon = assay type: cell-based; settings: replicon pHCVNeo17.m35: Y2065H
pHCVNeo17.m30 replicon = assay type: cell-based; settings: replicon pHCVNeo17.m30: H2057R
NS5A protein = NS5A protein (Hepatitis C virus genotype 1b, UniProt Q9WMX2, INS2039K); assay type: cell-based; settings: HBI10A cells, 2 μM compound (Ib), pulse-chase
pHCVNeo17.m21 replicon = assay: microbe, parasite or virus in culture; assay type: cell-based; settings: Hepatitis C virus; replicon pHCVNeo17.m21: K@2039, S2404P; read-out: Cmpd Ib IC50
[2] = tested on: HCV replicons in resistant cell clones; assay type: cell-based; settings: fold increase of IC50
[3] = tested on: HCV replicons derived from the Con1 isolate in mouse hepatoma cell line Hepa1-6; assay type: cell-based
[4] = tested on: HCV replicon in resistant clone 10AB2; assay: microbe, parasite or virus in culture; assay type: cell-based; settings: Hepatitis C virus, Cell-ELISA, read-out: IC50 Compound (Ib)
[5] = tested on: HCV replicon in resistant clone 10AB11; assay: microbe, parasite or virus in culture; assay type: cell-based; settings: Hepatitis C virus, Cell-ELISA, read-out: IC50 Compound (Ib)
pHCVNeo17.m36 replicon = assay: microbe, parasite or virus in culture; assay type: cell-based; settings: Hepatitis C virus; replicon pHCVNeo17.m36: K@2039, Y2065H; read-out: Cmpd Ib IC50
[6] = tested on: HCV replicons derived from the Con1 isolate in human HeLa cells; assay type: cell-based
pBK-RMSI replicon = assay: microbe, parasite or virus in culture; assay type: cell-based; settings: Hepatitis C virus, 96 h; subgenomic pBK-RMSI, BK, R1496M + S2204I; 10AIFN cells, four days after transfection
[7] = tested on: non-adapted full length Con1 genomes; assay type: cell-based; settings: lesser extent than with the corresponding replicons
pHCVNeo17.m5 replicon = assay: microbe, parasite or virus in culture; assay type: cell-based; settings: Hepatitis C virus; replicon pHCVNeo17.m5: K@2039; read-out: Cmpd Ib IC50
[8] = tested on: non-adapted replicons derived from the BK isolate of HCV; assay type: cell-based
[9] = relative to concentrations effective on the replicon
[10] = tested on: pFL.m10 genomic replicon (adapted full length HCV genome); assay type: cell-based, HCV isolate Con1
pHCVNeo17.RG replicon = assay: microbe, parasite or virus in culture; assay type: cell-based; settings: Hepatitis C virus, 96 h; subgenomic pHCVNeo17.RG, Con1, R2884G; 10AIFN cells, four days after transfection
pHCVNeo17.m50 replicon = assay: microbe, parasite or virus in culture; assay type: cell-based; settings: Hepatitis C virus; replicon pHCVNeo17.m50: K@2039, R2129W; read-out: Cmpd Ib IC50
[11] = tested on: HCV replicon in resistant clone 10AB7; assay: microbe, parasite or virus in culture; assay type: cell-based; settings: Hepatitis C virus, Cell-ELISA, read-out: IC50 Compound (Ib)
pHCVNeo17.SI replicon = assay: microbe, parasite or virus in culture; assay type: cell-based; settings: Hepatitis C virus, 96 h; subgenomic pHCVNeo17.SI, Con1, S2204I; 10AIFN cells, four days after transfection
[12] = tested on: HCV replicon in HBI10A cells; assay: microbe, parasite or virus in culture; assay type: cell-based; settings: Hepatitis C virus

CC(=O)c1cccc(NC(=O)c2ccc(N3CCN(C(=O)OC(C)(C)C)CC3)cc2)c1 [Example 108, tert-butyl 4-(4-{[(3-acetylphenyl)amino]carbonyl}phenyl)piperazine-1-carboxylate]
Replicon Activation Yes/No (pHCVNeo17.wt replicon): No | IC50 (pHCVNeo17.m10 replicon; Hepatitis C virus, 96 h): > 1 µM

COc1ccc(CNC(=O)N2CCN(c3ccc(C(=O)Nc4ccc(O)cc4)cc3)CC2)cc1 [Example 303, 4-(4-{[(4-hydroxyphenyl)amino]carbonyl}phenyl)-N-(4-methoxybenzyl)piperazine-1-carboxamide]
Replicon Activation Yes/No (pHCVNeo17.wt replicon): Yes | IC50 (pHCVNeo17.m10 replicon; Hepatitis C virus, 96 h): < 1 µM

CC(C)(C)OC(=O)N1CCN(c2ccc(C(=O)Nc3ccc(C(=O)c4ccccc4)cc3)cc2)CC1 [Example 112, tert-butyl 4-(4-{[(4-benzoylphenyl)amino]carbonyl}phenyl)piperazine-1-carboxylate]
Replicon Activation Yes/No (pHCVNeo17.wt replicon): No | IC50 (pHCVNeo17.m10 replicon; Hepatitis C virus, 96 h): < 1 µM

CC(C)(C)OC(=O)N1CCN(c2ccc(C(=O)Nc3cccc(Br)c3)cc2)CC1 [Example 103, tert-butyl 4-(4-{[(3-bromophenyl)amino]carbonyl}phenyl)piperazine-1-carboxylate]
Replicon Activation Yes/No (pHCVNeo17.wt replicon): No | IC50 (pHCVNeo17.m10 replicon; Hepatitis C virus, 96 h): < 1 µM

O=C(Nc1ccc(O)cc1)c1ccc(N2CCN(C(=O)OCc3ccccc3)CC2)cc1 [Example 216, benzyl 4-(4-{[(4-hydroxyphenyl)amino]carbonyl}phenyl)piperazine-1-carboxylate]
Replicon Activation Yes/No (pHCVNeo17.wt replicon): Yes | IC50 (pHCVNeo17.m10 replicon; Hepatitis C virus, 96 h): < 1 µM

CC(C)(C)OC(=O)N1CCN(c2ccc(C(=O)Nc3ccc(/C=C/c4ccc(O)cc4)cc3)cc2)CC1 [Example 116, tert-butyl 4-{4-[({4-[(E)-2-(4-hydroxyphenyl)vinyl]phenyl}amino)carbonyl]phenyl}piperazine-1-carboxylate]
Replicon Activation Yes/No (pHCVNeo17.wt replicon): No | IC50 (pHCVNeo17.m10 replicon; Hepatitis C virus, 96 h): < 1 µM

C[C@@H](NC(=O)N1CCN(c2ccc(C(=O)Nc3ccc(O)cc3)cc2)CC1)c1ccccc1 [Example 306, 4-(4-{[(4-hydroxyphenyl)amino]carbonyl}phenyl)-N-[(1R)-1-phenylethyl] piperazine-1-carboxamide]
Replicon Activation Yes/No (pHCVNeo17.wt replicon): No | IC50 (pHCVNeo17.m10 replicon): < 1 µM

CC(C)(C)OC(=O)N1CCN(c2ccc(C(=O)Nc3ccc(O)cc3)cc2)CC1 [Example 101, tert-butyl 4-(4-{[(4-hydroxyphenyl)amino]carbonyl}phenyl)piperazine-1-carboxylate]
IC50 [1]: > 2 µM | Inhibition of cell proliferation, 14C thymidine incorporation (cell proliferation): only at concentrations two orders of magnitude higher than those effective on the replicon | IC50 (pHCVNeo17.m29 replicon): > 2 µM | Cmpd Ib IC50 (μM) (pHCVNeo17.m35 replicon): No effect | Cmpd Ib IC50 (μM) (pHCVNeo17.m30 replicon): activation | Conversion of NS5A p56 into hyperphosphorylated p58 (NS5A protein): the rate and the extent of conversion of the p56 into p58 were reduced | IC50 (pHCVNeo17.m21 replicon): 0.038 µM | IC50 in resistant cell clones relative to parental cells [2]: at least ten times higher | Inhibition of HCV replicons in Hepa1-6 cells [3]: inhibited with comparable potencies | IC50 [4]: > 2 µM | IC50 [5]: > 2 µM | IC50 (pHCVNeo17.m36 replicon): > 2 µM | Inhibition of HCV replicons in HeLa cells [6]: inhibited with comparable potencies | IC50 (pBK-RMSI replicon): 0.65 µM | Stimulation of replication of non-adapted full length Con1 genomes [7]: stimulated replication | IC50 (pHCVNeo17.m5 replicon): 0.1 µM | Activation of replication of non-adapted BK replicons [8]: activated replication | Toxicity, MTT cytotoxicity assay [9]: only at concentrations two orders of magnitude higher than those effective on the replicon | Inhibition of replication of an adapted full length HCV genome [10]: inhibited with comparable potency | IC50 (pHCVNeo17.RG replicon): < 0.05 µM | Replicon Activation Yes/No (pHCVNeo17.wt replicon): Yes | Cmpd Ib IC50 (μM) (pHCVNeo17.wt replicon; replicon pHCVNeo17.Wt, no mutations): ^bactivation | IC50 (pHCVNeo17.m10 replicon; Hepatitis C virus, 96 h): < 1 µM | IC50 (pHCVNeo17.m50 replicon): > 2 µM | IC50 [11]: > 2 µM | IC50 (pHCVNeo17.SI replicon): 0.1 µM | IC50 ([12]; HBI10A replicon cells, read-out: IC50, dose-dependent inhibition of HCV replication): 0.12 ± 0.06 µM | IC50 ([12]; parental clone HBI10A, Cell-ELISA, read-out: IC50 Compound (Ib)): 0.1 ± 0.05 µM

O=C(Nc1ccc(O)cc1)c1ccc(N2CCN(S(=O)(=O)/C=C/c3ccccc3)CC2)cc1 [Example 503, N-(4-hydroxyphenyl)-4-(4-{[(E)-2-phenylvinyl]sulfonyl}piperazin-1-yl)benzamide]
Replicon Activation Yes/No (pHCVNeo17.wt replicon): No | IC50 (pHCVNeo17.m10 replicon; Hepatitis C virus, 96 h): > 1 µM

C=Cc1ccc(NC(=O)c2ccc(N3CCN(C(=O)OC(C)(C)C)CC3)cc2)cc1 [Example 115, tert-butyl 4-(4-{[(4-vinylphenyl)amino]carbonyl}phenyl)piperazine-1-carboxylate]
Replicon Activation Yes/No (pHCVNeo17.wt replicon): No | IC50 (pHCVNeo17.m10 replicon; Hepatitis C virus, 96 h): > 1 µM

O=C(Nc1ccc(O)cc1)c1ccc(N2CCN(C(=O)C3CCCCC3)CC2)cc1 [Example 401, 4-[4-(cyclohexylcarbonyl)piperazin-1-yl]-N-(4-hydroxyphenyl)benzamide]
Replicon Activation Yes/No (pHCVNeo17.wt replicon): No | IC50 (pHCVNeo17.m10 replicon; Hepatitis C virus, 96 h): < 1 µM

CC(=O)Oc1ccc(NC(=O)c2ccc(N3CCN(C(=O)OC(C)(C)C)CC3)cc2)cc1 [Example 123, tert-butyl 4-[4-({[4-(acetyloxy)phenyl]amino}carbonyl)phenyl]piperazine-1-carboxylate]
Replicon Activation Yes/No (pHCVNeo17.wt replicon): Yes | IC50 (pHCVNeo17.m10 replicon; Hepatitis C virus, 96 h): < 1 µM

CC(C)(C)OC(=O)N1CCC(c2ccc(C(=O)Nc3ccc(O)cc3)cc2)CC1 [Example 602, tert-butyl 4-(4-{[(4-hydroxyphenyl)amino]carbonyl}phenyl)piperidine-1-carboxylate]
Replicon Activation Yes/No (pHCVNeo17.wt replicon): No | IC50 (pHCVNeo17.m10 replicon; Hepatitis C virus, 96 h): > 1 µM

CC(C)(C)C(=O)N1CCN(c2ccc(C(=O)Nc3ccc(O)cc3)cc2)CC1 [Example 403, 4-[4-(2,2-dimethylpropanoyl)piperazin-1-yl]-N-(4-hydroxyphenyl)benzamide]
Replicon Activation Yes/No (pHCVNeo17.wt replicon): No | IC50 (pHCVNeo17.m10 replicon; Hepatitis C virus, 96 h): < 1 µM

CC(C)COC(=O)N1CCN(c2ccc(C(=O)Nc3ccc(O)cc3)cc2)CC1 [Example 201, isobutyl 4-(4-{[(4-hydroxyphenyl)amino]carbonyl}phenyl)piperazine-1-carboxylate]
Replicon Activation Yes/No (pHCVNeo17.wt replicon): No | IC50 (pHCVNeo17.m10 replicon; Hepatitis C virus, 96 h): > 1 µM

CC(C)(C)OC(=O)N1CCN(c2ccc(NC(=O)c3ccc(O)cc3)cc2)CC1 [Example 603, tert-butyl 4-{4-[(4-hydroxybenzoyl)amino]phenyl}piperazine-1-carboxylate]
Replicon Activation Yes/No (pHCVNeo17.wt replicon): No | IC50 (pHCVNeo17.m10 replicon; Hepatitis C virus, 96 h): > 1 µM

CC(C)(C)NC(=O)N1CCN(c2ccc(C(=O)Nc3ccc(O)cc3)cc2)CC1 [Example 302, N-(tert-butyl)-4-(4-{[(4-hydroxyphenyl)amino]carbonyl}phenyl)piperazine-1-carboxamide]
Replicon Activation Yes/No (pHCVNeo17.wt replicon): Yes | IC50 (pHCVNeo17.m10 replicon; Hepatitis C virus, 96 h): < 1 µM
